Measured values taken from US20230257364A1, “PYRIDAZINONE-BASED COMPOUNDS AS AXL, C-MET, AND MER INHIBITORS AND METHODS OF USE THEREOF” (CMG Pharmaceutical Co., Ltd., priority 2022, published 2023).
Where two headings read alike, the source gives them in different places.

What was measured:
Type in all cases: biochemical
C-MET = C-MET (Homo sapiens, UniProt P08581); assay: Enzymatic kinase assay (ADP-GLO), C-MET
Description: (§1) This example illustrates an enzymatic assay to determine the inhibitory activity of exemplary compounds of Formula (I) in an aspect of the invention.
All the kinase reactions were performed in 5 μL using tyrosine kinase buffer with 0.2 μg/μL poly (Glu4, Tyr1) substrate, 10 μM ATP, serial dilution of the inhibitor, and incubated at room temperature for 60 min. After the indicated incubation times, 5 μL ADP-GLO™ reagent (Promega, Madison, Wis.) was added to the reactions and the plate was incubated at room temperature for 40 min. […] All 384-well assay plates were read using a GLOMAX™ Discover Microplate Luminometer from Promega (Madison, Wis.). To plot, analyze the data and calculate all kinase reaction biochemical values, both Microsoft Excel and Prism from GraphPad 7 Software (La Jolla, Calif.) were used.

AXL = molecular target: T1, AXL (Homo sapiens, UniProt P30530); assay: Enzymatic kinase assay (ADP-GLO), AXL; settings: 10 μM ATP, poly (Glu4, Tyr1) substrate, 60 min room temperature, luminescence
T1 sequence (P30530 26-894): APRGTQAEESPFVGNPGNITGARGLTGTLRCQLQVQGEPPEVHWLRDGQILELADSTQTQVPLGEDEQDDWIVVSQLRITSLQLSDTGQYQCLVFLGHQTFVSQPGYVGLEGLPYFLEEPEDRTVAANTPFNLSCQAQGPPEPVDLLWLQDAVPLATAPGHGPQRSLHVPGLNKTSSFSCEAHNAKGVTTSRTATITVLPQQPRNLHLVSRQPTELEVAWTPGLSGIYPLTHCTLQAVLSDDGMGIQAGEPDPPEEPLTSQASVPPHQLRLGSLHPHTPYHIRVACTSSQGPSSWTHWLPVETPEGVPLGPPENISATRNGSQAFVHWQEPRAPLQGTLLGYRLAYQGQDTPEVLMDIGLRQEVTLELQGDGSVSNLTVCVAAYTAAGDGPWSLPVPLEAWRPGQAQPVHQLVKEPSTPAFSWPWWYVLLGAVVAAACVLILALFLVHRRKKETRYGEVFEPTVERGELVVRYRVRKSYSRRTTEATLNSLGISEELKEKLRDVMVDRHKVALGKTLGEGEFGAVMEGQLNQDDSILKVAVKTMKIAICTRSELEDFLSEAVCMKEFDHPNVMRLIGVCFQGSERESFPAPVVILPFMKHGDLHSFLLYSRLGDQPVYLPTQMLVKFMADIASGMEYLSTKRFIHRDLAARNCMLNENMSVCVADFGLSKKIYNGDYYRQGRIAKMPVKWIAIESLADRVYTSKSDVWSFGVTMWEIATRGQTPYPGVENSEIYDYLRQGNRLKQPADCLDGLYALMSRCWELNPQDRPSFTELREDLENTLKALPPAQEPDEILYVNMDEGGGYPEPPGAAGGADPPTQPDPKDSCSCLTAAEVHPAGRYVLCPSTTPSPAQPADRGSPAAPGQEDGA
Description: as §1
(§2) All the kinase reactions were performed in 5 μL using tyrosine kinase buffer with 0.2 μg/μL poly (Glu4, Tyr1) substrate, 10 μM ATP, serial dilution of the inhibitor, and incubated at room temperature for 60 min. After the indicated incubation times, 5 μL ADP-GLO™ reagent (Promega, Madison, Wis.) was added to the reactions and the plate was incubated at room temperature for 40 min. Then, 10 μL of kinase detection reagent was added and after an incubation time of 40 min, luminescence was recorded and IC50 values were determined (Table 1). All 384-well assay plates were read using a GLOMAX™ Discover Microplate Luminometer from Promega (Madison, Wis.). To plot, analyze the data and calculate all kinase reaction biochemical values, both Microsoft Excel and Prism from GraphPad 7 Software (La Jolla, Calif.) were used.

MER = molecular target: T2, MER (Homo sapiens, UniProt Q12866); assay: Enzymatic kinase assay (ADP-GLO), MER; settings: 10 μM ATP, poly (Glu4, Tyr1) substrate, 60 min room temperature, luminescence
T2 sequence (Q12866 21-999): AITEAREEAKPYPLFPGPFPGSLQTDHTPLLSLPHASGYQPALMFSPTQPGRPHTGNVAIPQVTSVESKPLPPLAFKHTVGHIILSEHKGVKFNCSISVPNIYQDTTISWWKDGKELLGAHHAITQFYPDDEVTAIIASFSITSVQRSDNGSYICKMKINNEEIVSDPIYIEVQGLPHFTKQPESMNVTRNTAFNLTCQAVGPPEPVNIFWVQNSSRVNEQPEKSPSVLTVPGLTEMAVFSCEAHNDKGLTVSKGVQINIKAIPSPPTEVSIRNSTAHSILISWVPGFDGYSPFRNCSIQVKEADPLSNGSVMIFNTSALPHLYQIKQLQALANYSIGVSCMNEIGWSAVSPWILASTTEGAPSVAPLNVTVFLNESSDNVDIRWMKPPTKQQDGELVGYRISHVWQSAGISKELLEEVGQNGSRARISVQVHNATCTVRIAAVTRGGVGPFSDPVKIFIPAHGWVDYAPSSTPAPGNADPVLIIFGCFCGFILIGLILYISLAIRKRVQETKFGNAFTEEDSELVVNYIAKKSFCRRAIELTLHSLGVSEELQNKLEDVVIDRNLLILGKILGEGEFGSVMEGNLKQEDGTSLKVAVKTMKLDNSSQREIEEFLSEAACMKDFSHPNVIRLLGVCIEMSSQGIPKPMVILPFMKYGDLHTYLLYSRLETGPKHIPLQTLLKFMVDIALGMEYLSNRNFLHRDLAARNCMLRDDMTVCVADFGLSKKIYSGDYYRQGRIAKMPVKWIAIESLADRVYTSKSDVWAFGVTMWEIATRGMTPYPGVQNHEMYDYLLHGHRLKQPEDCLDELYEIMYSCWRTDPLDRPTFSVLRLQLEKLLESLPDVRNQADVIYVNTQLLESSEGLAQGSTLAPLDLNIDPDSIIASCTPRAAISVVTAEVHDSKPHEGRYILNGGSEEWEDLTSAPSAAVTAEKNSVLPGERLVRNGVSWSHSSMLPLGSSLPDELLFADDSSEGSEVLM
Description: as §1, §2

[1] = 10 μM ATP, poly (Glu4, Tyr1) substrate, 60 min room temperature, luminescence, read-out: Enzymatic assay IC50 (nM) C-MET

C-MET, sequence (P08581 25-1390): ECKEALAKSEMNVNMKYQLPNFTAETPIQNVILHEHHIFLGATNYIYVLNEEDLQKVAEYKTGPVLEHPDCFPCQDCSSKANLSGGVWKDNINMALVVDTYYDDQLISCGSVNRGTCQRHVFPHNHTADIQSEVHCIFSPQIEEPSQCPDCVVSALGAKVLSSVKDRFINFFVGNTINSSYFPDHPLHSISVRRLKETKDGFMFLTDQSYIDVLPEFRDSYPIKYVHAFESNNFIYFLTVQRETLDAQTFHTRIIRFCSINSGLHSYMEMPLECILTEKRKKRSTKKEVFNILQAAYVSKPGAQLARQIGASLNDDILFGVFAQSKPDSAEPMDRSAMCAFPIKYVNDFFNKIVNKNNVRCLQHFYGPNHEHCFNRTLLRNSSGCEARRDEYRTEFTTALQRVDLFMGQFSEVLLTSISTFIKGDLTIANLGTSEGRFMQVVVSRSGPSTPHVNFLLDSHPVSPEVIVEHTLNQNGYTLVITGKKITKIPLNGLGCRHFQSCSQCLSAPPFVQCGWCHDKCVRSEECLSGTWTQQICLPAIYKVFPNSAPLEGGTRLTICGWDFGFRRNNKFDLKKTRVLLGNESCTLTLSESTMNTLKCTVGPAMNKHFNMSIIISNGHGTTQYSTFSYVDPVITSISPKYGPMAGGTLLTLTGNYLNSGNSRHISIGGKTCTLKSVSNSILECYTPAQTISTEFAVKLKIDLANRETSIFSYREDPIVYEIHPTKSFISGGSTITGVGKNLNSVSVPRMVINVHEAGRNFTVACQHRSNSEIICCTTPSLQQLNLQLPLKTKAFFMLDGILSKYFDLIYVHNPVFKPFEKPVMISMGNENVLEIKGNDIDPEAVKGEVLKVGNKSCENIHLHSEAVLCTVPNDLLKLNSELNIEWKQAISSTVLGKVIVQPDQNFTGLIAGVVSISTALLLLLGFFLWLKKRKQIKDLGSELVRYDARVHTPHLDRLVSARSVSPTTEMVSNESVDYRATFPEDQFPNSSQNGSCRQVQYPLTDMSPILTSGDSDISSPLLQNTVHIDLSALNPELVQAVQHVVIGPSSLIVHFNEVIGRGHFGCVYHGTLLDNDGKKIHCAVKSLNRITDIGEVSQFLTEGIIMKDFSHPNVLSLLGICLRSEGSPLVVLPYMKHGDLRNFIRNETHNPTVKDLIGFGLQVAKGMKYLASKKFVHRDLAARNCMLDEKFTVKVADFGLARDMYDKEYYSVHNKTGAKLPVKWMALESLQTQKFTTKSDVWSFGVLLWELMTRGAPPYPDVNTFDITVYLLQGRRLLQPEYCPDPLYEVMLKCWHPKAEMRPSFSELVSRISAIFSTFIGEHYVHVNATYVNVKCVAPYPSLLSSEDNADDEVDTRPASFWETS

Compound	IC50 (C-MET) [nM]	IC50 (AXL) [nM]	IC50 (MER) [nM]	IC50 (C-MET; [1]) [nM]
Nc1nccc(Oc2ccc(NC(=O)c3ccnn(-c4ccc(F)cc4)c3=O)cc2F)c1C#CCC1CCNCC1 [Example 30, N-(4-(2-amino-3-(3-(piperidin-4-yl)prop-1-ynyl)pyridin-4-yloxy)-3-fluorophenyl)-2-(4-fluorophenyl)-3-oxo-2,3-dihydropyridazine-4-carboxamide]	< 10	< 10	< 10	
COCCN1CCC(CC#Cc2c(Oc3ccc(NC(=O)c4ccnn(-c5ccc(F)cc5)c4=O)cc3F)ccnc2N)CC1 [Example 31, N-(4-(2-amino-3-(3-(1-(2-methoxyethyl)piperidin-4-yl)prop-1-ynyl)pyridin-4-yloxy)-3-fluorophenyl)-2-(4-fluorophenyl)-3-oxo-2,3-dihydropyridazine-4-carboxamide]		< 100	< 100	< 10
CC(C)N1CCC(CC#Cc2c(Oc3ccc(NC(=O)c4ccnn(-c5ccc(F)cc5)c4=O)cc3F)ccnc2N)CC1 [Example 32, N-(4-(2-amino-3-(3-(1-isopropylpiperidin-4-yl)prop-1-ynyl)pyridin-4-yloxy)-3-fluorophenyl)-2-(4-fluorophenyl)-3-oxo-2,3-dihydropyridazine-4-carboxamide]		< 100	< 100	< 100
